test system: HepG2 cells; test: Inhibition of the release of ApoB-100-associated lipoproteins from liver cells (HepG2), immunoassay; format: cell-based; details: Homo sapiens; HepG2 culture supernatant; light adsorption at 450 nm vs solvent control; release of ApoB-100-associated particles
Method: 1. Inhibition of the release of ApoB-100-associated lipoproteins
The test for detecting the inhibition of the release of ApoB-100-associatedlipoproteins from liver cells was carried out in vitro using cultured liver cells, preferably using cells of the human line HepG2. These cells are cultured under standard conditions in medium for the culture of eucaryotic cells, preferably in RPMI 1640 with 10% foetal calf serum. HepG2 cells synthesize and secrete into the culture supernatant ApoB-100-associated lipoprotein particles which in principle are constructed similarly to the VLDL and LDL particles which are to be found in the plasma.
These particles can be detected using an immunoassay for human LDL. This immunoassay is carried out using antibodies which have been induced in rabbits against human LDL under standard conditions. The anti-LDL antibodies (rabbit anti-LDL-Ab) were purified by affinity chromatography on an immunosorbent using human LDL. These purified rabbit anti-LDL-Ab are adsorbed on the surface of plastic. Expediently, this adsorption takes place on the plastic surface of microtitre plates having 96 depressions, preferably on MaxiSorp plates. If ApoB-100-associated particles are present in the supernatant of Hep-G2 cells, these can bind to the insolubilized rabbit anti-LDL-Abs, and an imunune complex results which is bound to the plastic surface. Unbound proteins are removed by washing. The immune complex on the plastic surface is detected using monoclonal antibodies which have been induced against human LDL under standard conditions and purified. These antibodies were conjugated to the enzyme peroxidase. Peroxidase converts the colourless substrate TMB into a coloured product in the presence of H2 O2. After acidification of the reaction mixture with H2 SO4, the specific light adsorption at 450 nm is determined, which is a measure of the amount of ApoB-100-associated particles which have been secreted into the culture supernatant by the HepG2 cells.
The IC50 value indicates at which substance concentration the light adsorption is inhibited by 50% in comparison with the control (solvent control without substance).

IC50	Compound
1.1 nM	Cn1c(=O)c2c(c3ccccc3n2Cc2ccc([C@@H](C(=O)N[C@@H](CO)c3ccccc3)C3CCCC3)cc2)n(C)c1=O (mixture of isomers) [Example 2, 2-(R)- and 2-(S)-2-Cyclopentyl-2-(4-{1,3-dimethyl-1,5-dihydro-2,4-oxo-pyrimido-[5,4-b]indol-5-yl-methyl}phenyl)-aceticacidN-(2-hydroxy-1-(R)-1-phenyl-ethyl)amide]
0.8 nM	Cc1nc(C)c2c3ccccc3n(Cc3ccc([C@@H](C(=O)N[C@@H](CO)c4ccccc4)C4CCCC4)cc3)c2n1 [Example 6]
1 nM	Cc1nc(C)c2c3ccccc3n(Cc3ccc(C(C(=O)NCc4ccncc4)C4CCCC4)cc3)c2n1 (centres unmarked) [Example 10]
8.9 nM	Cn1c(=O)c2c3ccccc3n(Cc3ccc([C@H](C(=O)N[C@@H](CO)c4ccccc4)C4CCCC4)cc3)c2c(=O)n1C [Example 16]
1.8 nM	CSc1nnc2c3ccccc3n(Cc3ccc(C(C(=O)N[C@@H](CO)c4ccccc4)C4CCCC4)cc3)c2n1 (some centres unmarked) [Example 26]

— patent US5786361A, “Pyridazino-, pyrimido-, pyrazino- and triazinoindoles, -pyrrolocycloalkenes or pyrrolooxocycloalkenes, or pyridopyrrolylpyrido compounds, compositions containing them, and use thereof to treat atherosclerosis” (Bayer Aktiengesellschaft, priority 1997, dated 1998)
